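Grown in 96-well plates, cells were treated for 48 hours with each compound at five concentrations. Insufficient inhibition: endpoint recorded as highest concentration tested. GI50 marks 50% less growth. TGI denotes the concentration required for complete inhibition of growth.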
Experiments:
Experiment in all cases: NCI anticancer screen, dose series, 48 h
SK-MEL-2 melanoma = tested on: SK-MEL-2 melanoma
SN12C renal = tested on: SN12C renal
BT-549 breast = tested on: BT-549 breast
NCI-H460 lung = tested on: NCI-H460 lung
PC-3 prostate = tested on: PC-3 prostate
SK-MEL-5 melanoma = tested on: SK-MEL-5 melanoma
A549 NSCLC = tested on: A549 NSCLC
UACC-257 melanoma = tested on: UACC-257 melanoma
CAKI-1 renal = tested on: CAKI-1 renal
SW-620 colon = tested on: SW-620 colon
RXF 393 renal = tested on: RXF 393 renal
SNB-75 CNS = tested on: SNB-75 CNS
MALME-3M melanoma = tested on: MALME-3M melanoma
NCI-H23 lung = tested on: NCI-H23 lung
KM12 colon = tested on: KM12 colon
RPMI-8226 leukemia = tested on: RPMI-8226 leukemia
SNB-19 CNS = tested on: SNB-19 CNS
HCT-116 colon = tested on: HCT-116 colon
SK-OV-3 ovarian = tested on: SK-OV-3 ovarian
786-0 renal = tested on: 786-0 renal
LOX IMVI melanoma = tested on: LOX IMVI melanoma
SF-295 CNS = tested on: SF-295 CNS
SR leukemia = tested on: SR leukemia
ACHN renal = tested on: ACHN renal
IGROV1 ovarian = tested on: IGROV1 ovarian
T-47D breast = tested on: T-47D breast
HCC-2998 colon = tested on: HCC-2998 colon
U251 CNS = tested on: U251 CNS
HS 578T breast = tested on: HS 578T breast
OVCAR-8 ovarian = tested on: OVCAR-8 ovarian
NCI/ADR-RES ovarian = tested on: NCI/ADR-RES ovarian
TK-10 renal = tested on: TK-10 renal
HOP-92 NSCLC = tested on: HOP-92 NSCLC
HOP-62 NSCLC = tested on: HOP-62 NSCLC
COLO 205 colon = tested on: COLO 205 colon
UO-31 renal = tested on: UO-31 renal
K-562 leukemia = tested on: K-562 leukemia
SF-268 CNS = tested on: SF-268 CNS
A498 renal = tested on: A498 renal
OVCAR-4 ovarian = tested on: OVCAR-4 ovarian
DU-145 prostate = tested on: DU-145 prostate
HCT-15 colon = tested on: HCT-15 colon
NCI-H226 lung = tested on: NCI-H226 lung
UACC-62 melanoma = tested on: UACC-62 melanoma
HT29 colon = tested on: HT29 colon
MDA-MB-435 = tested on: MDA-MB-435
MDA-MB-231 breast = tested on: MDA-MB-231 breast
MCF7 breast = tested on: MCF7 breast
NCI-H522 lung = tested on: NCI-H522 lung
SF-539 CNS = tested on: SF-539 CNS
MOLT-4 leukemia = tested on: MOLT-4 leukemia
SK-MEL-28 melanoma = tested on: SK-MEL-28 melanoma
EKVX NSCLC = tested on: EKVX NSCLC
OVCAR-5 ovarian = tested on: OVCAR-5 ovarian
HL-60(TB) leukemia = tested on: HL-60(TB) leukemia
OVCAR-3 ovarian = tested on: OVCAR-3 ovarian
M14 melanoma = tested on: M14 melanoma

O=C(Nc1cc(C(F)(F)F)ccc1F)Nc1n[nH]c2ccccc12
GI50 (SK-MEL-2 melanoma): > 100 µM | TGI (SK-MEL-2 melanoma): > 100 µM | GI50 (SN12C renal): > 100 µM | TGI (SN12C renal): > 100 µM | GI50 (BT-549 breast): > 100 µM | TGI (BT-549 breast): > 100 µM | GI50 (NCI-H460 lung): > 100 µM | TGI (NCI-H460 lung): > 100 µM | GI50 (PC-3 prostate): > 100 µM | TGI (PC-3 prostate): > 100 µM | GI50 (SK-MEL-5 melanoma): > 100 µM | TGI (SK-MEL-5 melanoma): > 100 µM | GI50 (A549 NSCLC): > 100 µM | TGI (A549 NSCLC): > 100 µM | GI50 (UACC-257 melanoma): > 100 µM | TGI (UACC-257 melanoma): > 100 µM | GI50 (CAKI-1 renal): > 100 µM | TGI (CAKI-1 renal): > 100 µM | GI50 (SW-620 colon): > 100 µM | TGI (SW-620 colon): > 100 µM | GI50 (RXF 393 renal): > 100 µM | TGI (RXF 393 renal): > 100 µM | GI50 (SNB-75 CNS): 40.1 µM | TGI (SNB-75 CNS): > 100 µM | GI50 (MALME-3M melanoma): > 100 µM | TGI (MALME-3M melanoma): > 100 µM | GI50 (NCI-H23 lung): > 100 µM | TGI (NCI-H23 lung): > 100 µM | GI50 (KM12 colon): > 100 µM | TGI (KM12 colon): > 100 µM | GI50 (RPMI-8226 leukemia): > 100 µM | TGI (RPMI-8226 leukemia): > 100 µM | GI50 (SNB-19 CNS): > 100 µM | TGI (SNB-19 CNS): > 100 µM | GI50 (HCT-116 colon): > 100 µM | TGI (HCT-116 colon): > 100 µM | GI50 (SK-OV-3 ovarian): > 100 µM | TGI (SK-OV-3 ovarian): > 100 µM | GI50 (786-0 renal): > 100 µM | TGI (786-0 renal): > 100 µM | GI50 (LOX IMVI melanoma): > 100 µM | TGI (LOX IMVI melanoma): > 100 µM | GI50 (SF-295 CNS): > 100 µM | TGI (SF-295 CNS): > 100 µM | GI50 (SR leukemia): 55.4 µM | TGI (SR leukemia): > 100 µM | GI50 (ACHN renal): > 100 µM | TGI (ACHN renal): > 100 µM | GI50 (IGROV1 ovarian): 0.758 µM | TGI (IGROV1 ovarian): > 100 µM | GI50 (T-47D breast): 0.215 µM | TGI (T-47D breast): > 100 µM | GI50 (HCC-2998 colon): > 100 µM | TGI (HCC-2998 colon): > 100 µM | GI50 (U251 CNS): > 100 µM | TGI (U251 CNS): > 100 µM | GI50 (HS 578T breast): > 100 µM | TGI (HS 578T breast): > 100 µM | GI50 (OVCAR-8 ovarian): > 100 µM | TGI (OVCAR-8 ovarian): > 100 µM | GI50 (NCI/ADR-RES ovarian): > 100 µM | TGI (NCI/ADR-RES ovarian): > 100 µM | GI50 (TK-10 renal): > 100 µM | TGI (TK-10 renal): > 100 µM | GI50 (HOP-92 NSCLC): > 100 µM | TGI (HOP-92 NSCLC): > 100 µM | GI50 (HOP-62 NSCLC): > 100 µM | TGI (HOP-62 NSCLC): > 100 µM | GI50 (COLO 205 colon): > 100 µM | TGI (COLO 205 colon): > 100 µM | GI50 (UO-31 renal): > 100 µM | TGI (UO-31 renal): > 100 µM | GI50 (K-562 leukemia): > 100 µM | TGI (K-562 leukemia): > 100 µM | GI50 (SF-268 CNS): > 100 µM | TGI (SF-268 CNS): > 100 µM | GI50 (A498 renal): > 100 µM | TGI (A498 renal): > 100 µM | GI50 (OVCAR-4 ovarian): > 100 µM | TGI (OVCAR-4 ovarian): > 100 µM | GI50 (DU-145 prostate): > 100 µM | TGI (DU-145 prostate): > 100 µM | GI50 (HCT-15 colon): > 100 µM | TGI (HCT-15 colon): > 100 µM | GI50 (NCI-H226 lung): > 100 µM | TGI (NCI-H226 lung): > 100 µM | GI50 (UACC-62 melanoma): > 100 µM | TGI (UACC-62 melanoma): > 100 µM | GI50 (HT29 colon): > 100 µM | TGI (HT29 colon): > 100 µM | GI50 (MDA-MB-435): > 100 µM | TGI (MDA-MB-435): > 100 µM | GI50 (MDA-MB-231 breast): > 100 µM | TGI (MDA-MB-231 breast): > 100 µM | GI50 (MCF7 breast): 18.2 µM | TGI (MCF7 breast): > 100 µM | GI50 (NCI-H522 lung): > 100 µM | TGI (NCI-H522 lung): > 100 µM | GI50 (SF-539 CNS): > 100 µM | TGI (SF-539 CNS): > 100 µM | GI50 (MOLT-4 leukemia): > 100 µM | TGI (MOLT-4 leukemia): > 100 µM | GI50 (SK-MEL-28 melanoma): > 100 µM | TGI (SK-MEL-28 melanoma): > 100 µM | GI50 (EKVX NSCLC): > 100 µM | TGI (EKVX NSCLC): > 100 µM | GI50 (OVCAR-5 ovarian): > 100 µM | TGI (OVCAR-5 ovarian): > 100 µM | GI50 (HL-60(TB) leukemia): > 100 µM | TGI (HL-60(TB) leukemia): > 100 µM | GI50 (OVCAR-3 ovarian): > 100 µM | TGI (OVCAR-3 ovarian): > 100 µM | GI50 (M14 melanoma): > 100 µM | TGI (M14 melanoma): > 100 µM

From PubChem BioAssay (NCI)
